Experimental data taken from patent publication US20060069132A1, “Azolecarboxamide herbicides” (priority 2004, published 2006).

Key:
barnyardgrass = test: Test B pre-/postemergence herbicide test; format: in vivo, Echinochloa crus-galli; conditions: for Plant response rating (0 to 100 scale), Barnyardgrass: 0 is no effect
How it was run: (§1)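 Plants compared with untreated controls 13–15 days post-treatment and given a visual 0–100 injury score. Applications: preemergence to seeds; postemergence at 1- to 4-leaf (2–18 cm); paddy species flooded, 2-leaf stage. Vehicle non-phytotoxic, surfactant included.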

Surinam grass = test: Test B pre-/postemergence herbicide test; format: in vivo, Urochloa decumbens; conditions: for Plant response rating (0 to 100 scale), Surinam Grass: 0 is no effect
How it was run: (§2)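 Formulation: non-phytotoxic solvent mix with surfactant. Timing: preemergence on seed and postemergence on 2–18 cm plants, applied concurrently. Readout after 13–15 d greenhouse: visual 0–100 control rating against controls.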

corn = test: Test B pre-/postemergence herbicide test; format: in vivo, Zea mays; conditions: for Plant response rating (0 to 100 scale), Corn: 0 is no effect, preemergence
How it was run: as §2

large crabgrass = test: Test B pre-/postemergence herbicide test; format: in vivo, Digitaria sanguinalis; conditions: for Plant response rating (0 to 100 scale), Crabgrass, Large: 0 is no effect
How it was run: as §2

giant foxtail = test: Test B pre-/postemergence herbicide test; format: in vivo, Setaria faberi; conditions: for Plant response rating (0 to 100 scale), Foxtail, Giant: 0 is no effect
How it was run: as §2

lambsquarters = test: Test B pre-/postemergence herbicide test; format: in vivo, Chenopodium album; conditions: for Plant response rating (0 to 100 scale), Lambsquarters: 0 is no effect, preemergence
How it was run: as §2

morningglory = test: Test B pre-/postemergence herbicide test; format: in vivo, Ipomoea coccinea; conditions: for Morningglory plant response rating: scale 0 (no effect) to 100 (complete control); for Plant response rating (0 to 100 scale), Morningglory: 0 is no effect, 100 is complete control
How it was run: as §1

pigweed = test: Test B pre-/postemergence herbicide test; format: in vivo, Amaranthus retroflexus; conditions: for Plant response rating (0 to 100 scale), Pigweed: 0 is no effect, preemergence
How it was run: as §2

velvetleaf = test: Test B pre-/postemergence herbicide test; format: in vivo, Abutilon theophrasti; conditions: for Plant response rating (0 to 100 scale), Velvetleaf: 0 is no effect, preemergence
How it was run: as §2

blackgrass = test: Test B postemergence herbicide test; format: in vivo, Alopecurus myosuroides
How it was run: (§3)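 Formulated test chemicals went onto postemergence plants measuring 2 to 18 cm, at one to four leaves. For the paddy assay, species had reached two leaves. Scoring took place 13–15 days later by eye, relative to untreated plants, using 0 for no effect up to 100 for full control.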

wheat = test: Test B postemergence herbicide test; format: in vivo, Triticum aestivum; parameters: key to Wheat plant response rating: 0 = no effect, 100 = complete control
How it was run: (§4)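 After treating 2-leaf paddy plants or 2–18 cm postemergence plants (1 to 4 leaves) with formulated chemical, researchers kept them in a greenhouse for 13–15 days. Effects were judged visually versus controls: 0 indicates none, 100 total control.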

wild oat = test: Test B postemergence herbicide test; format: in vivo, Avena fatua
How it was run: as §4

rice = test: Test B flooded paddy test; format: in vivo, Oryza sativa; conditions: 1000 g ai/ha, scale 0 to 100 (0 no effect, 100 complete control)
How it was run: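 Scale 0–100: zero equals no visible effect, 100 complete control, judged by eye relative to controls. Timing: 13 to 15 days in greenhouse post-treatment. Growth stage at spraying: two leaves (paddy) or one to four leaves, 2–18 cm (postemergence).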

[1] = tested on: small flower umbrella sedge; test: Test B flooded paddy test; format: in vivo, Cyperus difformis; conditions: 1000 g ai/ha, scale 0 to 100 (0 no effect, 100 complete control)
How it was run: as §3

ducksalad = test: Test B flooded paddy test; format: in vivo, Heteranthera limosa; conditions: 1000 g ai/ha, scale 0 to 100 (0 no effect, 100 complete control)
How it was run: as §3

[2] = 125 g ai/ha, 100 is complete control, preemergence
[3] = 125 g ai/ha, visual rating, scale 0 (no effect) to 100 (complete control), postemergence
[4] = 500 g ai/ha, visual rating, 0 = no effect, 100 = complete control, preemergence
[5] = postemergence, 500 g ai/ha, scale 0 to 100, 0 is no effect, 100 is complete control
[6] = 125 g ai/ha, visual rating, postemergence
[7] = 125 g ai/ha, 100 is complete control
[8] = Postemergence, 500 g ai/ha, scale 0 (no effect) to 100 (complete control)
[9] = 500 g ai/ha, scale 0 to 100, 0 no effect, 100 complete control, preemergence

| Structure (SMILES) | Plant response rating (0 to 100 scale), Barnyardgrass (barnyardgrass; [2]) | Barnyardgrass plant response rating (barnyardgrass; [3]) | Plant response rating (0 to 100 scale), Surinam Grass (Surinam grass; [2]) | Surinam Grass plant response rating (Surinam grass; [3]) | Corn plant response rating (corn; [3]) | Plant response rating (0 to 100 scale), Crabgrass, Large (large crabgrass; [2]) | Crabgrass, Large plant response rating (large crabgrass; [3]) | Plant response rating (0 to 100 scale), Foxtail, Giant (giant foxtail; [2]) | Foxtail, Giant plant response rating (giant foxtail; [3]) | Lambsquarters plant response rating (lambsquarters; [3]) | Morningglory plant response rating (morningglory; [6]) | Plant response rating (0 to 100 scale), Pigweed (pigweed; [7]) | Pigweed plant response rating (pigweed; [3]) | Plant response rating (0 to 100 scale), Velvetleaf (velvetleaf; [7]) | Velvetleaf plant response rating (velvetleaf; [3]) | Blackgrass plant response rating (blackgrass; [3]) | Wheat plant response rating (wheat; [3]) | Oat, Wild plant response rating (wild oat; [3]) | Rice plant response rating (rice) | Sedge, Umbrella plant response rating [1] | other results |
| --- | --- | --- | --- | --- | --- | --- | --- | --- | --- | --- | --- | --- | --- | --- | --- | --- | --- | --- | --- | --- | --- |
| CCNC(=O)c1ccc(F)c(NC(=O)c2c3c(nn2CC)C(C)(C)CC3)c1 [Compound 353] | 40 | 10 | 0 | 0 | 10 | 20 | 10 | 0 | 20 | 20 | 10 | 0 | 30 | 10 | 20 | 10 | 0 | 10 | 40 | 90 | Plant response rating, Barnyardgrass (barnyardgrass; [4]): 90; Barnyardgrass plant response rating (barnyardgrass; [5]): 10; Plant response rating, Surinam Grass (Surinam grass; [4]): 30; Surinam Grass plant response rating (Surinam grass; [5]): 10; Corn plant response rating (corn; [5]): 20; Plant response rating, Crabgrass, Large (large crabgrass; [4]): 80; Crabgrass, Large plant response rating (large crabgrass; [5]): 10; Plant response rating, Foxtail, Giant (giant foxtail; [4]): 50; Foxtail, Giant plant response rating (giant foxtail; [5]): 30; Lambsquarters plant response rating (lambsquarters; [5]): 40; Plant response rating, Morningglory (morningglory; [4]): 20; Pigweed plant response rating (pigweed; [5]): 70; Velvetleaf plant response rating (velvetleaf; [5]): 20; Blackgrass plant response rating (blackgrass; [5]): 40; Wheat plant response rating (wheat; [5]): 10; Oat, Wild plant response rating (wild oat; [5]): 40; Ducksalad plant response rating (ducksalad): 80 |
| CCOC(=O)c1cccc(NC(=O)c2nn(C(C)(C)CC)nc2CC)c1 [Compound 375] | 20 | 30 | 40 | 20 | 20 | 20 | 20 | 50 | 40 | 20 | 20 | 70 | 40 | 30 | 70 | 30 | 30 | 40 | 40 | 80 | Barnyardgrass plant response rating (barnyardgrass; [5]): 70; Surinam Grass plant response rating (Surinam grass; [8]): 30; Plant response rating (0 to 100 scale), Corn (corn; [7]): 0; Corn plant response rating (corn; [5]): 40; Crabgrass, Large plant response rating (large crabgrass; [5]): 40; Foxtail, Giant plant response rating (giant foxtail; [5]): 70; Plant response rating (0 to 100 scale), Lambsquarters (lambsquarters; [7]): 50; Lambsquarters plant response rating (lambsquarters; [8]): 40; Plant response rating (0 to 100 scale), Morningglory (morningglory; 125 g ai/ha, preemergence): 10; Morningglory plant response rating (morningglory; Postemergence, 500 g ai/ha): 40; Pigweed plant response rating (pigweed; [8]): 80; Velvetleaf plant response rating (velvetleaf; [8]): 90; Blackgrass plant response rating (blackgrass; [5]): 40; Wheat plant response rating (wheat; [9]): 30; Wheat plant response rating (wheat; [8]): 40; Oat, Wild plant response rating (wild oat; [8]): 50; Ducksalad plant response rating (ducksalad): 20 |
| CCc1nn(C(C)(C)C)nc1C(=O)Nc1cccc(C(=O)N(C)CC)c1 [Compound 384] | 90 | 0 | 100 | 10 | 0 | 90 | 10 | 90 | 10 | 70 | 30 | 90 | 30 | 70 | 30 | 20 | 10 | 10 | 90 | 80 | Barnyardgrass plant response rating (barnyardgrass; [5]): 30; Surinam Grass plant response rating (Surinam grass; [8]): 60; Plant response rating (0 to 100 scale), Corn (corn; [7]): 80; Corn plant response rating (corn; [5]): 10; Crabgrass, Large plant response rating (large crabgrass; [5]): 40; Foxtail, Giant plant response rating (giant foxtail; [5]): 30; Plant response rating (0 to 100 scale), Lambsquarters (lambsquarters; [7]): 100; Lambsquarters plant response rating (lambsquarters; [8]): 80; Plant response rating (0 to 100 scale), Morningglory (morningglory; 125 g ai/ha, preemergence): 10; Morningglory plant response rating (morningglory; Postemergence, 500 g ai/ha): 40; Pigweed plant response rating (pigweed; [8]): 70; Velvetleaf plant response rating (velvetleaf; [8]): 70; Blackgrass plant response rating (blackgrass; [5]): 50; Wheat plant response rating (wheat; [9]): 100; Wheat plant response rating (wheat; [8]): 20; Oat, Wild plant response rating (wild oat; [8]): 30; Ducksalad plant response rating (ducksalad): 80 |
| CCNC(=O)c1cccc(NC(=O)c2nn(C(C)(C)C)nc2C)c1 [Compound 392] | 90 | 10 | 70 | 10 | 0 | 100 | 10 | 80 | 20 | 70 | 20 | 100 | 60 | 70 | 30 | 20 | 0 | 0 | 80 | 80 | Barnyardgrass plant response rating (barnyardgrass; [8]): 20; Surinam Grass plant response rating (Surinam grass; [8]): 20; Plant response rating (0 to 100 scale), Corn (corn; [7]): 70; Corn plant response rating (corn; [8]): 20; Crabgrass, Large plant response rating (large crabgrass; [8]): 20; Foxtail, Giant plant response rating (giant foxtail; [8]): 30; Plant response rating (0 to 100 scale), Lambsquarters (lambsquarters; [7]): 100; Lambsquarters plant response rating (lambsquarters; [8]): 90; Plant response rating (0 to 100 scale), Morningglory (morningglory; 125 g ai/ha, preemergence): 90; Morningglory plant response rating (morningglory; Postemergence, 500 g ai/ha): 70; Pigweed plant response rating (pigweed; [8]): 60; Velvetleaf plant response rating (velvetleaf; [8]): 40; Blackgrass plant response rating (blackgrass; [8]): 60; Wheat plant response rating (wheat; [9]): 100; Wheat plant response rating (wheat; [8]): 10; Oat, Wild plant response rating (wild oat; [8]): 30; Ducksalad plant response rating (ducksalad): 80 |
| Cc1nn(C(C)(C)C)nc1C(=O)Nc1cccc(C(=O)N2CC=CC2)c1 [Compound 393] | 90 | 10 | 80 | 10 | 0 | 90 | 10 | 80 | 20 | 60 | 30 | 100 | 40 | 50 | 40 | 20 | 0 | 10 | 80 | 90 | Barnyardgrass plant response rating (barnyardgrass; [8]): 20; Surinam Grass plant response rating (Surinam grass; [8]): 10; Plant response rating (0 to 100 scale), Corn (corn; [7]): 40; Corn plant response rating (corn; [8]): 20; Crabgrass, Large plant response rating (large crabgrass; [8]): 20; Foxtail, Giant plant response rating (giant foxtail; [8]): 30; Plant response rating (0 to 100 scale), Lambsquarters (lambsquarters; [7]): 90; Lambsquarters plant response rating (lambsquarters; [8]): 80; Plant response rating (0 to 100 scale), Morningglory (morningglory; 125 g ai/ha, preemergence): 20; Morningglory plant response rating (morningglory; Postemergence, 500 g ai/ha): 50; Pigweed plant response rating (pigweed; [8]): 50; Velvetleaf plant response rating (velvetleaf; [8]): 60; Blackgrass plant response rating (blackgrass; [8]): 40; Wheat plant response rating (wheat; [9]): 100; Wheat plant response rating (wheat; [8]): 10; Oat, Wild plant response rating (wild oat; [8]): 30; Ducksalad plant response rating (ducksalad): 90 |
